The target of one test is T1, PPARδ (GAL4-hPPARδ LBD) (Homo sapiens, UniProt Q03181).
T1 construct: A chimeric receptor expression plasmid (GAL4-hPPARδ LBD), a reporter plasmid (UASx4-TK-LUC); expressed in transfected cells; host or cells: CV-1 cells
T1 sequence (Q03181 211-439 limits assumed): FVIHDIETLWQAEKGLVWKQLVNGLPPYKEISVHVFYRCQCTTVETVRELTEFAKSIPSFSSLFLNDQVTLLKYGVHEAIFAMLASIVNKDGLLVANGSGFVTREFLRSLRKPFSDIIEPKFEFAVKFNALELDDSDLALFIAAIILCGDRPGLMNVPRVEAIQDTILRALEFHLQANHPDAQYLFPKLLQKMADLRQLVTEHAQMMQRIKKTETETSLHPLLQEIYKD
The experiment in a line: PPARδ transactivation activity (GAL4 chimera luciferase reporter in CV-1 cells). It counts as cell-based. As to the method: A chimeric receptor expression plasmid (GAL4-hPPARδ LBD), a reporter plasmid (UASx4-TK-LUC) and β-galactosidase (β-GAL) are transfected into CV-1 cells by utilizing a lipofection reagent DMRIE-C (Life Technologies).
(1) Measurement of PPARα, γ, δ Transactivation Activity
CV-1 cells were obtained from Tohoku University Aging Medical Laboratory, Medical Cell Collection Center. All test compounds were dissolved in dimethylsulfoxide (DMSO). Final concentration of DMSO was 0.1%.
CV-1 cells were seeded in 24 well culture plates at 2×10^5 cells per well, and cultured for 24 hours OPTI-MEM I Reduced Serum Medium (Life Technologies, 500 μL/well) containing 4%-fetal bovine serum (FBS). After washing with OPTI-MEM, transfection mixture (250 μL/well) containing 0.03 μg of GAL4-hPPARδ LBD, 0.25 μg of UASx-4-TK-LUC, 0.35 μg of βGAL, and 2 μL of lipofection reagent, DMRIE-C (Life Technologies) were added. The cells were incubated for 5 hours at 37° C.
The cells were washed and incubated for 40 hours in the presence of the test compound (final concentration was 10^−7M or 10^−6M)
The culture medium was removed and the cells were washed with PBS twice. A solubilizing buffer (100 μL/well) containing 25 mM Tris-PO4 (pH 7.8), 15% v/v glycerol, 2% CHAPS, 1% Lecithin, 1% BSA, 4 mM EGTA (pH 8.0), 8 mM MgCl2, 1 mM DTT was added. After the incubation for 10 minutes at room temperature, a portion (20 μL) of the solution was transferred into a 96-well plate. Subsequently, 100 μL of luciferase substrate solution (Piccagene: available from Nippon Gene Co., Ltd.) was added, and a luminous intensity per one second (luciferase activity) was measured using a microluminoreader (Type MLR-100, Corona Electrics Co., Ltd.). Each luciferase activity was corrected by the transfection efficiency which was calculated from β-galactosidase activity. The assay method of β-galactosidase activity was as follows: A portion (50 μL) of the solubilized sample was transferred into another 96-well plate; 100 μL of ONPG (2-nitrophenyl-β-galactopyranoside) solution was added and incubated for 5 minutes at room temperature. 50 μL of a reaction stopping solution (1M sodium carbonate solution) was added. Then the absorbance at 414 nm was measured.
(A reporter such as luciferase makes a cellular process visible.)

Another test deals with T2, PPARα (GAL4-hPPARα LBD) (Homo sapiens, UniProt Q07869).
T2 construct: Receptor expression plasmid (GAL4-hPPARα, LBD GAL4-hPPARγ LBD, GAL4-hPPARδ LBD); expressed in transfected cells; host or cells: CV-1 cells
T2 sequence (Q07869 239-466 limits assumed): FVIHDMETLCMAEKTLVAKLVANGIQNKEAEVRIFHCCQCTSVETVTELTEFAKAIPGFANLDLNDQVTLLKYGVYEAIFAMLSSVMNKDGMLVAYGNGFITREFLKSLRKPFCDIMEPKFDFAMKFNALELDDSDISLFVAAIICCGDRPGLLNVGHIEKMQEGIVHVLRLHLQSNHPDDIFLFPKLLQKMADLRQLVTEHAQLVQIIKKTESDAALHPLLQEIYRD
The experiment in a line: PPARα transactivation activity (GAL4 chimera luciferase reporter in CV-1 cells). The class given is cell-based.

A further test concerns the target T3, PPARγ (GAL4-hPPARγ LBD) (Homo sapiens, UniProt P37231).
T3 construct: Receptor expression plasmid (GAL4-hPPARα, LBD GAL4-hPPARγ LBD, GAL4-hPPARδ LBD); expressed in transfected cells; host or cells: CV-1 cells
T3 sequence (P37231 238-503 limits assumed): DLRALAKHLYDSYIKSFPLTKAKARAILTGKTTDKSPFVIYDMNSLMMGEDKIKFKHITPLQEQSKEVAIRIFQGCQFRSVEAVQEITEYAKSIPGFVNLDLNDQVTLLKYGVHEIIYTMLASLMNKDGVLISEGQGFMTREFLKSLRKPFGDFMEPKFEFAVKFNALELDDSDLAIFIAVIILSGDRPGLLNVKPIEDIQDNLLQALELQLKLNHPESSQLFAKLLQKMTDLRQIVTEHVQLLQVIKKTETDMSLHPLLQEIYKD
Description: PPARγ transactivation activity (GAL4 chimera luciferase reporter in CV-1 cells). It counts as cell-based.

A further test deals with db/db mice. The experiment in a line: HDL cholesterol elevating effect in db/db mice. It counts as in vivo. Conditions: for Ratio of increasing HDL cholesterol (% to control): 10 mg/kg/b.i.d. orally for one week, serum 16 hours after final administration; for HDL cholesterol elevating effect (in words): oral, one week twice daily. The protocol: HDL cholesterol elevating effect was measured by using db/db mice, which are hereditary obesity mice. The db/db mice (10 weeks old) were divided into groups based on serum HDL cholesterol levels. […] Mice of the control group (to which no agent was administered) were orally given 1% methyl cellulose solution. After 16 hours from the final administration, blood sample was collected, and serum HDL cholesterol level was measured. HDL cholesterol was separated by electrophoresis on agarose gels (Chol/Trig Combo, Helena Laboratories). […] HDL cholesterol levels were calculated from total cholesterol levels and HDL cholesterol/total cholesterol ratios.
Each value represents as % of the control group.

The mark [1] stands for this setting: compound at 10^−7 M (value without parentheses).
[2] abbreviates: compound at 10^−6 M (value in parentheses).

On to `Cc1cc(C=CCc2sc(-c3ccc(C(F)(F)F)cc3)nc2C(C)C)ccc1OCC(=O)O` [Example 10, [4-[3-[4-Isopropyl-2-(4-trifluoromethyl)phenyl-5-thiazolyl]-1-propenyl]-2-methylphenoxy]acetic acid], for which the “Relative activity for PPAR transactivation, δ” value (shortened to “Relative activity … δ”) at PPARδ (GAL4-hPPARδ LBD) (setting [1]) is 67 % of control. The “Relative activity for PPAR transactivation, α” value (shortened to “Relative activity … α”) at PPARα (GAL4-hPPARα LBD) (setting [1]) is 0 % of control. For the same compound, the “Relative activity for PPAR transactivation, γ” value (shortened to “Relative activity … γ”) on PPARγ (GAL4-hPPARγ LBD) (setting [1]) is given as 1 % of control. Moreover, in the test on db/db mice, the “Ratio of increasing HDL cholesterol (% to control)” value is on record as 134 % to control and the “HDL cholesterol elevating effect (in words)” value is recorded as “excellent effect of increasing HDL cholesterol”.

With `CCCCCCc1nc(-c2ccc(C(F)(F)F)cc2)sc1CCC(=O)c1ccc(OCC(=O)O)c(C)c1` [Example 11, [4-[3-[4-Hexyl-2-(4-trifluoromethyl)phenyl-5-thiazolyl]propionyl]-2-methylphenoxy]acetic acid], the “Relative activity … δ” value at PPARδ (GAL4-hPPARδ LBD) (setting [1]) was 56 % of control. In addition, the “Relative activity … α” value at PPARα (GAL4-hPPARα LBD) (setting [1]) is on record as 0 % of control. In addition, the “Relative activity … γ” value on PPARγ (GAL4-hPPARγ LBD) (setting [1]) is 1 % of control.

In the case of `CC(C)c1nc(-c2ccc(C(F)(F)F)cc2)sc1CCC(=O)c1ccc(OC(C)(C)C(=O)O)c(Cl)c1` [Example 34, [4-[3-[2-(4-Trifluoromethyl)phenyl-4-isopropyl-5-thiazolyl]propionyl]-2-chlorophenoxy]-2-methylpropionic acid], the “Relative activity … δ” value at PPARδ (GAL4-hPPARδ LBD) (setting [1]) was 66 % of control. For the same compound, the “Relative activity … α” value on PPARα (GAL4-hPPARα LBD) (setting [1]) is recorded as 5 % of control. For the same compound, at PPARγ (GAL4-hPPARγ LBD) (setting [1]), the “Relative activity … γ” value is 3 % of control.

For the compound `CCCCCCc1nc(-c2ccc(C(F)(F)F)cc2)sc1CC=Cc1ccc(OC(C)(C)C(=O)O)c(C)c1` [Example 45, 2-[4-[3-[4-Hexyl-2-(4-trifluoromethyl)phenyl-5-thiazolyl]-1-propenyl]-2-methylphenoxy]-2-methylpropionic acid], at PPARδ (GAL4-hPPARδ LBD) (setting [1]), the “Relative activity … δ” value was 49 % of control. The “Relative activity … α” value at PPARα (GAL4-hPPARα LBD) (setting [1]) is reported as 90 % of control. Besides, the “Relative activity … γ” value at PPARγ (GAL4-hPPARγ LBD) (setting [1]) is listed as 20 % of control.

Take `Cc1cc(C=CCc2sc(-c3ccc(C(F)(F)F)cc3)nc2C(C)C)ccc1OC(C)(C)C(=O)O` [Example 13, 2-[4-[3-[4-Isopropyl-2-(4-trifluoromethyl)phenyl-5-thiazolyl]-1-propenyl]-2-methylphenoxy]-2-methylpropionic acid]: the “Relative activity … δ” value on PPARδ (GAL4-hPPARδ LBD) (setting [1]) is reported as 62 % of control. Moreover, the “Relative activity … α” value on PPARα (GAL4-hPPARα LBD) (setting [1]) is listed as 63 % of control. The “Relative activity … γ” value on PPARγ (GAL4-hPPARγ LBD) (setting [1]) is given as 17 % of control.

As to `CC(C)c1nc(-c2ccc(C(F)(F)F)cc2)sc1CCC(=O)c1ccc(OCC(=O)O)c(Cl)c1` [Example 33, [4-[3-[4-Isopropyl-2-(4-trifluoromethyl)phenyl-5-thiazolyl]propionyl]-2-chlorophenoxy]acetic acid], the “Relative activity … δ” value at PPARδ (GAL4-hPPARδ LBD) (setting [1]) is given as 44 % of control. Further, the “Relative activity … α” value at PPARα (GAL4-hPPARα LBD) (setting [1]) was 0 % of control. At PPARγ (GAL4-hPPARγ LBD) (setting [1]), the “Relative activity … γ” value is 1 % of control.

Consider `CCc1nc(-c2ccc(C(F)(F)F)cc2)sc1CCC(=O)c1ccc(OC(C)(C)C(=O)O)c(C)c1` [Example 48, 2-[4-[3-[4-Ethyl-2-(4-trifluoromethyl)phenyl-5-thiazolyl]propionyl]-2-methylphenoxy]-2-methylpropionic acid], for which, on PPARδ (GAL4-hPPARδ LBD) (setting [2]), the “Relative activity … δ” value is given as “(51) % of control”. Further, on PPARα (GAL4-hPPARα LBD) (setting [2]), the “Relative activity … α” value is “(84) % of control”. Besides, the “Relative activity … γ” value on PPARγ (GAL4-hPPARγ LBD) (setting [2]) is reported as “(13) % of control”.

As to `Cc1cc(C(=O)CCc2sc(-c3ccc(C(F)(F)F)cc3)nc2C(C)C)ccc1OC(C)(C)C(=O)O` [Example 4, 2-[4-[3-[2-(4-Trifluoromethyl)phenyl-4-isopropyl-5-thiazolyl]propionyl]-2-methylphenoxy]-2-methylpropionic acid], the “Relative activity … δ” value at PPARδ (GAL4-hPPARδ LBD) (compound at 10^−7 M, CV-1 cells, 40 hours, positive control 10^−4 M L-165041 = 100%) is on record as 86 % of control. Also, the “Relative activity … α” value on PPARα (GAL4-hPPARα LBD) (compound at 10^−7 M, CV-1 cells, 40 hours, positive control 10^−4 M WY-14643 = 100%) is given as 11 % of control. On PPARγ (GAL4-hPPARγ LBD) (compound at 10^−7 M, CV-1 cells, 40 hours, positive control 10^−5 M Rosiglitazone = 100%), the “Relative activity … γ” value is listed as 12 % of control. In the test on db/db mice, the “Ratio of increasing HDL cholesterol (% to control)” value is 176 % to control and the “HDL cholesterol elevating effect (in words)” value was “excellent effect of increasing HDL cholesterol”.

Turning to `C=CCc1cc(C(=O)CCc2sc(-c3ccc(C(F)(F)F)cc3)nc2C(C)C)ccc1OCC(=O)O` [Example 19, 2-Allyl-4-[3-[4-isopropyl-2-(4-trifluoromethyl)phenyl-5-thiazolyl]propionyl]phenoxyacetic acid], the “Relative activity … δ” value at PPARδ (GAL4-hPPARδ LBD) (setting [1]) is 86 % of control. Also, on PPARα (GAL4-hPPARα LBD) (setting [1]), the “Relative activity … α” value is recorded as 0 % of control. In addition, the “Relative activity … γ” value on PPARγ (GAL4-hPPARγ LBD) (setting [1]) is given as 2 % of control.

Consider `Cc1cc(C(=O)CCc2nc(-c3ccc(C(F)(F)F)cc3)sc2C(C)C)ccc1OC(C)(C)C(=O)O` [Example 38, 2-[4-[3-[5-Isopropyl-2-(4-trifluoromethyl)phenyl-4-thiazolyl]propionyl]-2-methylphenoxy]-2-methylpropionic acid], for which the “Relative activity … δ” value on PPARδ (GAL4-hPPARδ LBD) (setting [2]) is “(69) % of control”. The “Relative activity … α” value on PPARα (GAL4-hPPARα LBD) (setting [2]) is on record as “(3) % of control”. Moreover, on PPARγ (GAL4-hPPARγ LBD) (setting [2]), the “Relative activity … γ” value is recorded as “(9) % of control”.

Turning to `CCc1nc(-c2ccc(C(F)(F)F)cc2)sc1CCC(=O)c1ccc(OCC(=O)O)c(C)c1` [Example 47, [4-[3-[4-Ethyl-2-(4-trifluoromethyl)phenyl-5-thiazolyl]propionyl]-2-methylphenoxy]acetic acid], the “Relative activity … δ” value at PPARδ (GAL4-hPPARδ LBD) (setting [1]) is 57 % of control. Moreover, at PPARα (GAL4-hPPARα LBD) (setting [1]), the “Relative activity … α” value was 0 % of control. Further, the “Relative activity … γ” value at PPARγ (GAL4-hPPARγ LBD) (setting [1]) is recorded as 0 % of control.

(Values after US7648999B2, “Activator for peroxisome proliferator-activated receptor δ” (Nippon Chemiphar Co., Ltd., priority 2007, dated 2010).)
